Target: T1, His-tagged recombinant human TrkA (Homo sapiens, UniProt P04629)
T1 construct: 6HIS tagged cytoplasmic domain from Invitrogen, Catalog No. PV3144; purchased Invitrogen PV3144
Assay: TrkA LanthaScreen Eu Kinase Binding Assay
Conditions: averaged IC50 values; read-out: TrkA enzyme IC50
Description: TrkA binding activity was determined in a TrkA LanthaScreen™ Eu Kinase Binding Assay. 5 nM His-tagged recombinant human TrkA (6HIS tagged cytoplasmic domain from Invitrogen, Catalog No. PV3144) was incubated with 4 nM Alexa-Fluor® Tracer 236 (Invitrogen Cat. No. PV5592), 2 nM biotinylated anti-His (Invitrogen Cat. No. PV6090), and 2 nM europium-labeled Streptavidin (Invitrogen Cat. No. PV5899), in buffer (25 mM MOPS, pH 7.5, 5 mM MgCl2, 0.005% Triton X-100). Three fold serial dilutions of compounds of the invention in DMSO were added to a final percentage of 2% DMSO. After 60-minute incubation at 22° C., the reaction was measured using the EnVision mutlimode plate reader (PerkinElmer) via TR-FRET dual wavelength detection at […]. The percent of control was calculated using a ratiometric emission factor. The IC50 values were determined by fitting a four parameter model to the percent of control data.
Table A provides averaged IC50 values for compounds of the invention when tested in the assay of Example A, where A represents an averaged IC50 value <100 nM; and B represents an averaged IC50 value from 100 to 1,000 nM.

T1 sequence (P04629 440-796 limits assumed): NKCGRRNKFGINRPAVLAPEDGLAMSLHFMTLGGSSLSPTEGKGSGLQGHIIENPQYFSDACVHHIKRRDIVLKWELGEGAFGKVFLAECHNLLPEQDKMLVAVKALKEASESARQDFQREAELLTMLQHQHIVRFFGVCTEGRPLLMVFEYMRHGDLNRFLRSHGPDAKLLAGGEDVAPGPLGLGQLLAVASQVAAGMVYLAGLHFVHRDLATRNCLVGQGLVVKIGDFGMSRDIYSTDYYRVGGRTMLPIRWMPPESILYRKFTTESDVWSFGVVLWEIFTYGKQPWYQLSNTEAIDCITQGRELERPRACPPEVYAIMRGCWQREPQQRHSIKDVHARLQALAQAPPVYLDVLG

SMILES | IC50
COCCN1C[C@@H](NC(=O)Nc2cccc3cn[nH]c23)[C@H](c2ccccc2)C1 (relative stereo) [Example 1, 1-(1H-indazol-7-yl)-3-(trans-1-(2-methoxyethyl)-4-phenylpyrrolidin-3-yl)urea di-trifluoroacetate] | 100 to 1000 nM
COCCN1C[C@@H](NC(=O)Nc2ccc(C)c3cn[nH]c23)[C@H](c2ccccc2)C1 (relative stereo) [Example 2, 1-(trans-1-(2-methoxyethyl)-4-phenylpyrrolidin-3-yl)-3-(4-methyl-1H-indazol-7-yl)urea di-trifluoroacetate] | 100 to 1000 nM
COCCN1C[C@@H](NC(=O)Nc2cccc3c(Br)n[nH]c23)[C@H](c2ccccc2)C1 (relative stereo) [Example 3, 1-(3-bromo-1H-indazol-7-yl)-3-(trans-1-(2-methoxyethyl)-4-phenylpyrrolidin-3-yl)urea] | < 100 nM
COCCN1C[C@@H](NC(=O)Nc2cccc3c(-c4ccccc4)n[nH]c23)[C@H](c2ccccc2)C1 (relative stereo) [Example 4, 1-(trans-1-(2-methoxyethyl)-4-phenylpyrrolidin-3-yl)-3-(3-phenyl-1H-indazol-7-yl)urea] | < 100 nM
COCCN1C[C@@H](NC(=O)Nc2c(-c3ccccc3)nc3sc(C)cn23)[C@H](c2ccccc2)C1 (relative stereo) [Example 5, 1-((trans)-1-(2-methoxyethyl)-4-phenylpyrrolidin-3-yl)-3-(2-methyl-6-phenylimidazo[2,1-b]thiazol-5-yl)urea] | 100 to 1000 nM
COCCN1C[C@@H](NC(=O)Nc2c(-c3ccccc3)nc3ccccn23)[C@H](c2ccccc2)C1 (relative stereo) [Example 6, 1-((trans)-1-(2-methoxyethyl)-4-phenylpyrrolidin-3-yl)-3-(2-phenylimidazo[1,2-a]pyridin-3-yl)urea] | < 100 nM
COCCN1C[C@@H](NC(=O)Nc2c(-c3ccccc3)nc3ncccn23)[C@H](c2ccccc2)C1 (relative stereo) [Example 7, 1-((trans)-1-(2-methoxyethyl)-4-phenylpyrrolidin-3-yl)-3-(2-phenylimidazo[1,2-a]pyrimidin-3-yl)urea] | < 100 nM
COCCN1C[C@@H](NC(=O)Nc2c(-c3ccccc3)nc3scnn23)[C@H](c2ccccc2)C1 (relative stereo) [Example 8, 1-((trans)-1-(2-methoxyethyl)-4-phenylpyrrolidin-3-yl)-3-(6-phenylimidazo[2,1-b][1,3,4]thiadiazol-5-yl)urea] | < 100 nM
COCCN1C[C@@H](NC(=O)Nc2c(-c3ccccc3)nc3sccn23)[C@H](c2ccccc2)C1 (relative stereo) [Example 9, 1-((trans)-1-(2-methoxyethyl)-4-phenylpyrrolidin-3-yl)-3-(6-phenylimidazo[2,1-b]thiazol-5-yl)urea] | < 100 nM
COCCN1C[C@@H](NC(=O)Nc2c(-c3ccccc3)nc3cnccn23)[C@H](c2ccccc2)C1 (relative stereo) [Example 10, 1-((trans)-1-(2-methoxyethyl)-4-phenylpyrrolidin-3-yl)-3-(2-phenylimidazo[1,2-a]pyrazin-3-yl)urea] | < 100 nM
COCCN1C[C@@H](NC(=O)Nc2c(-c3ccccc3)nc3c(C)cccn23)[C@H](c2ccccc2)C1 (relative stereo) [Example 11, 1-((trans)-1-(2-methoxyethyl)-4-phenylpyrrolidin-3-yl)-3-(8-methyl-2-phenylimidazo[1,2-a]pyridin-3-yl)urea] | < 100 nM
COCCN1C[C@@H](NC(=O)Nc2c(-c3ccccc3)nc3cc(C)ccn23)[C@H](c2ccccc2)C1 (relative stereo) [Example 12, 1-((trans)-1-(2-methoxyethyl)-4-phenylpyrrolidin-3-yl)-3-(7-methyl-2-phenylimidazo[1,2-a]pyridin-3-yl)urea] | < 100 nM
COCCN1C[C@@H](NC(=O)Nc2c(-c3ccccc3)nc3ccc(C)cn23)[C@H](c2ccccc2)C1 (relative stereo) [Example 13, 1-((trans)-1-(2-methoxyethyl)-4-phenylpyrrolidin-3-yl)-3-(6-methyl-2-phenylimidazo[1,2-a]pyridin-3-yl)urea] | 100 to 1000 nM
COCCN1C[C@@H](NC(=O)Nc2c(-c3ccccc3)nc3c(Cl)cccn23)[C@H](c2ccccc2)C1 (relative stereo) [Example 14, 1-(8-chloro-2-phenylimidazo[1,2-a]pyridin-3-yl)-3-((trans)-1-(2-methoxyethyl)-4-phenylpyrrolidin-3-yl)urea] | < 100 nM
COCCN1C[C@@H](NC(=O)Nc2c(-c3ccccc3)nc3c(C(F)(F)F)cccn23)[C@H](c2ccccc2)C1 (relative stereo) [Example 16, 1-((trans)-1-(2-methoxyethyl)-4-phenylpyrrolidin-3-yl)-3-(2-phenyl-8-(trifluoromethyl)imidazo [1,2-a]pyridin-3-yl)urea] | < 100 nM
COCCN1C[C@@H](NC(=O)Nc2c(-c3ccccc3)nc3ccc(F)cn23)[C@H](c2ccccc2)C1 (relative stereo) [Example 17, 1-(6-fluoro-2-phenylimidazo[1,2-a]pyridin-3-yl)-3-((trans)-1-(2-methoxyethyl)-4-phenylpyrrolidin-3-yl)urea] | < 100 nM
COCCN1C[C@@H](NC(=O)Nc2c(-c3ccccc3)[nH]c3ccccc23)[C@H](c2ccccc2)C1 (relative stereo) [Example 26, 1-((trans)-1-(2-methoxyethyl)-4-phenylpyrrolidin-3-yl)-3-(2-phenyl-1H-indol-3-yl)urea] | < 100 nM
COCCN1C[C@@H](NC(=O)Nc2c(-c3ccccc3)nc3c(C)cccn23)[C@H](c2ccccc2)C1 [Example 15, 1-((3S,4R)-1-(2-methoxyethyl)-4-phenylpyrrolidin-3-yl)-3-(8-methyl-2-phenylimidazo[1,2-a]pyridin-3-yl)urea] | < 100 nM
COCCN1C[C@@H](NC(=O)Nc2c(-c3ccccc3)nc3c(F)cccn23)[C@H](c2ccccc2)C1 [Example 18, 1-(8-fluoro-2-phenylimidazo[1,2-a]pyridin-3-yl)-3-((3S,4R)-1-(2-methoxyethyl)-4-phenylpyrrolidin-3-yl)urea] | < 100 nM
COCCN1C[C@@H](NC(=O)Nc2c(-c3ccccc3)nc3c(C)nccn23)[C@H](c2ccccc2)C1 [Example 19, 1-((3S,4R)-1-(2-methoxyethyl)-4-phenylpyrrolidin-3-yl)-3-(8-methyl-2-phenylimidazo[1,2-a]pyrazin-3-yl)urea] | < 100 nM
COCCN1C[C@@H](NC(=O)Nc2c(-c3ccccc3)nc3c(=O)[nH]ccn23)[C@H](c2ccc(F)c(F)c2)C1 [Example 21, 1-((3S,4R)-4-(3,4-difluorophenyl)-1-(2-methoxyethyl)pyrrolidin-3-yl)-3-(8-oxo-2-phenyl-7,8-dihydroimidazo[1,2-a]pyrazin-3-yl)urea] | < 100 nM
COCCN1C[C@@H](NC(=O)Nc2c(-c3ccccc3)nc3c(OC)nccn23)[C@H](c2ccc(F)c(F)c2)C1 [Example 22, 1-((3S,4R)-4-(3,4-difluorophenyl)-1-(2-methoxyethyl)pyrrolidin-3-yl)-3-(8-methoxy-2-phenylimidazo[1,2-a]pyrazin-3-yl)urea] | < 100 nM
COCCN1C[C@@H](NC(=O)Nc2c(-c3ccccc3)nc3c(C)nccn23)[C@H](c2cc(F)cc(F)c2)C1 [Example 23, 1-((3S,4R)-4-(3,5-difluorophenyl)-1-(2-methoxyethyl)pyrrolidin-3-yl)-3-(8-methyl-2-phenylimidazo[1,2-a]pyrazin-3-yl)urea] | < 100 nM
COCCN1C[C@@H](NC(=O)Nc2c(-c3ccccc3)nc3c(=O)n(C)ccn23)[C@H](c2ccc(F)c(F)c2)C1 [Example 24, 1-((3S,4R)-4-(3,4-difluorophenyl)-1-(2-methoxyethyl)pyrrolidin-3-yl)-3-(7-methyl-8-oxo-2-phenyl-7,8-dihydroimidazo[1,2-a]pyrazin-3-yl)urea] | < 100 nM
CCn1ccn2c(NC(=O)N[C@@H]3CN(CCOC)C[C@H]3c3ccc(F)c(F)c3)c(-c3ccccc3)nc2c1=O [Example 25, 1-((3S,4R)-4-(3,4-difluorophenyl)-1-(2-methoxyethyl)pyrrolidin-3-yl)-3-(7-ethyl-8-oxo-2-phenyl-7,8-dihydroimidazo[1,2-a]pyrazin-3-yl)urea] | < 100 nM
COCCN1C[C@@H](NC(=O)Nc2c(-c3ccccc3)nc3c(C)nccn23)[C@H](c2ccc(F)cc2)C1 [Example 27, 1-((3S,4R)-4-(4-fluorophenyl)-1-(2-methoxyethyl)pyrrolidin-3-yl)-3-(8-methyl-2-phenylimidazo[1,2-a]pyrazin-3-yl)urea] | < 100 nM
COCCN1C[C@@H](NC(=O)NC2=C(c3ccccc3)C(=O)c3ccccc32)[C@H](c2ccc(F)c(F)c2)C1 [Example 28, 1-((3S,4R)-4-(3,4-difluorophenyl)-1-(2-methoxyethyl)pyrrolidin-3-yl)-3-(1-oxo-2-phenyl-1H-inden-3-yl)urea] | 100 to 1000 nM
